Measured values: article PMC6647725 (Analytical and Bioanalytical Chemistry, 2019)

What was measured:
[1] = Stability of stock solutions at − 20 °C; type: physicochemical; conditions: 1 mg/mL stock solution, storage at − 20 °C
Description: (§1) The stability of each analyte was investigated in all the previously mentioned matrices. For plasma (both human and mouse), the stability was determined in triplicate at two concentration levels, QC L and QC H, whereas for mouse tissue homogenates only at QC M (except the brain in one stability condition). For all matrices, the following stability conditions were assessed: short term at room temperature (RT), long term at − 20 °C, and after 3 freeze-thaw (F/T) cycles at − 20 °C/RT. Furthermore, for tissue homogenates, the short-term stability in ice-water, long-term stability at − 70 °C, and F/T stability at − 70 °C/ice-water were also evaluated. Additionally, the stability in the final extract was tested. For this, the QC L and QC H final extracts from the plasma, brain, and spleen and the QC M final extract from the liver, kidney and small intestine were stored at 4–8 °C up to 3 days. Lastly, the stability of the stock solutions at − 20 °C was investigated.

[2] = Stability in mouse small intestine homogenate and its final extract; type: in vitro ADME; conditions: nominal 50 ng/mL
Description: as §1, with “After weighing the complete organ, a volume of 3 mL of this solution was added to the liver and small intestine, 2 mL to the kidneys, and 1 mL to the brain and spleen. The tissue/BSA ratio (w/v) of the homogenates were approximately 0.4:1 for the brain and liver, 0.1:1 for the spleen, 0.2:1 for the kidneys, and 0.25:1 for the small intestine. All samples were shaken in the Fast Prep at 6.0 m/s during 60 s. The” for “The”

[3] = Stability in tissue homogenates; type: in vitro ADME, mouse; conditions: for stability in tissue homogenates (in words): all tissue homogenates and conditions of Table 6
Description: as §1

[4] = system: CDK6; conditions: cited from earlier work
[5] = Tissue distribution in mice after oral administration; type: in vivo, mouse (FVB); conditions: female FVB mice, 20 mg/kg oral, 24 h
Description: After weighing the complete organ, a volume of 3 mL of this solution was added to the liver and small intestine, 2 mL to the kidneys, and 1 mL to the brain and spleen. The tissue/BSA ratio (w/v) of the homogenates were approximately 0.4:1 for the brain and liver, 0.1:1 for the spleen, 0.2:1 for the kidneys, and 0.25:1 for the small intestine. All samples were shaken in the Fast Prep at 6.0 m/s during 60 s. This method was developed to support pharmacokinetic and tissue distribution studies of the CDK4/6 inhibitors in mice (FVB background). These studies were done separately for each drug. Animal housing and studies were conducted according to institutional guidelines complying with Dutch and European Union legislation (approval number from The Dutch Central Animal Testing Committee: AVD301002016595). […] Approximately 50 μL of blood was collected from the tip of the tail at several time points, except at the last one, when 500–1000 μL of blood was collected by cardiac puncture under isoflurane anesthesia. […] Mice were sacrificed by cervical dislocation and the organs were collected and weighed. Plasma was obtained using sodium heparin as anticoagulant after centrifugation at 9000g, 4 °C, for 6 min. When necessary, 10 μL of mouse plasma was diluted with 40 μL of human plasma. […]

[6] = final extract (listed under small intestine homogenate), 4–8 °C, 2 d
[7] = small intestine homogenate, 3 F/T (RT, − 20 °C)
[8] = small intestine homogenate, 3 F/T (− 70 °C, ice/water bath)
[9] = small intestine homogenate, LT − 20 °C, 1 m
[10] = small intestine homogenate, LT − 70 °C, 1 m
[11] = small intestine homogenate, RT, 3 h
[12] = small intestine homogenate, RT, 1 d
[13] = small intestine homogenate, ice/water bath, 3 h

Row | SMILES | stability of stock solutions (time stable) [1] | Accuracy (% Bias) [2, 6] [%] | Mean concentration [2, 6] [ng/mL] | Mean concentration [2, 7] [ng/mL] | Accuracy (% Bias) [2, 8] [%] | Mean concentration [2, 8] [ng/mL] | Mean concentration [2, 9] [ng/mL] | Mean concentration [2, 10] [ng/mL] | Accuracy (% Bias) [2, 11] [%] | Mean concentration [2, 11] [ng/mL] | Mean concentration [2, 12] [ng/mL] | Accuracy (% Bias) [2, 13] [%] | Mean concentration [2, 13] [ng/mL] | stability in tissue homogenates (in words) [3] | IC50 [4] [nM] | concentration in the brain compared with other tissues [5] | tissue distribution ([5]; spleen, kidney, liver, small intestine) | time stable in kidney and spleen homogenates ([3]; room temperature and ice/water bath)
1 | CCN1CCN(Cc2ccc(Nc3ncc(F)c(-c4cc(F)c5nc(C)n(C(C)C)c5c4)n3)nc2)CC1 [Abemaciclib] | […] | 4.7 | […] | 49.0 | 1.5 | 50.7 | 48.2 | 48.3 | […] | 56.4 | 46.4 | 3.1 | 51.6 | stable in all matrices at all conditions | […] |  |  | 
2 | CN(C)C(=O)c1cc2cnc(Nc3ccc(N4CCNCC4)cn3)nc2n1C1CCCC1 [Ribociclib] | at least 12 months |  | […] | 45.6 | 0.1 | 50.0 | 38.9 | 48.9 | 1.3 | 50.6 | 41.9 |  | 48.4 | showed instability in tissue homogenates | 39 | […] | highly distributed in the spleen and kidney, followed by the liver and small intestine | at least 3 h
